Assay results: PubChem BioAssay (NCI)
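Where inhibition never reached the appropriate level, the endpoint shown equals the highest concentration tested. Otherwise, values were interpolated linearly from a five-concentration, 48-hour dose response in 96-well plates. GI50 marks 50% less growth. Definition used: TGI = concentration required for complete inhibition of growth.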

Tests used:
Assay in all cases: NCI-60 cell line screen, 48 h
[1] = test system: UO-31 renal
[2] = test system: CCRF-CEM leukemia
[3] = test system: SNB-75 CNS
[4] = test system: SW-620 colon
[5] = test system: MDA-MB-435
[6] = test system: HOP-62 NSCLC
[7] = test system: T-47D breast
[8] = test system: HS 578T breast
[9] = test system: HCT-15 colon
[10] = test system: RXF 393 renal
[11] = test system: OVCAR-5 ovarian
[12] = test system: OVCAR-3 ovarian
[13] = test system: MALME-3M melanoma
[14] = test system: SK-MEL-28 melanoma
[15] = test system: MDA-MB-231 breast
[16] = test system: A498 renal
[17] = test system: DU-145 prostate
[18] = test system: MCF7 breast
[19] = test system: HOP-92 NSCLC
[20] = test system: CAKI-1 renal
[21] = test system: SF-295 CNS
[22] = test system: SN12C renal
[23] = test system: KM12 colon
[24] = test system: SF-539 CNS
[25] = test system: SK-MEL-5 melanoma
[26] = test system: EKVX NSCLC
[27] = test system: BT-549 breast
[28] = test system: TK-10 renal
[29] = test system: NCI-H522 lung
[30] = test system: NCI-H23 lung
[31] = test system: M14 melanoma
[32] = test system: NCI-H460 lung
[33] = test system: RPMI-8226 leukemia
[34] = test system: HT29 colon
[35] = test system: UACC-62 melanoma
[36] = test system: HCT-116 colon
[37] = test system: ACHN renal
[38] = test system: SNB-19 CNS
[39] = test system: COLO 205 colon
[40] = test system: LOX IMVI melanoma
[41] = test system: SK-OV-3 ovarian
[42] = test system: OVCAR-4 ovarian
[43] = test system: NCI-H226 lung
[44] = test system: U251 CNS
[45] = test system: HCC-2998 colon
[46] = test system: 786-0 renal
[47] = test system: NCI/ADR-RES ovarian
[48] = test system: SF-268 CNS
[49] = test system: SK-MEL-2 melanoma

Question: With `CCCCCCCC/C(=C\C1=C(C)C(=O)C(OC)=C(OC)C1=O)C(=O)O` as the compound, how does the GI50 [1] read?
Answer: 40.3 µM

Question: What about the TGI [1] of the same compound?
Answer: > 100 µM

Question: And the GI50 [2]?
Answer: 20.2 µM

Question: What about the TGI [2] of the same compound?
Answer: 42.5 µM

Question: What about the GI50 [3] of the same compound?
Answer: 67.7 µM

Question: And the TGI [3]?
Answer: > 100 µM

Question: What about the GI50 [4] of the same compound?
Answer: 35 µM

Question: And the TGI [4]?
Answer: > 100 µM

Question: What about the GI50 [5] of the same compound?
Answer: 18.8 µM

Question: And the TGI [5]?
Answer: 37 µM

Question: And the GI50 [6]?
Answer: 73.2 µM

Question: What about the TGI [6] of the same compound?
Answer: > 100 µM

Question: What about the GI50 [7] of the same compound?
Answer: 21.9 µM

Question: What about the TGI [7] of the same compound?
Answer: 48.8 µM

Question: And the GI50 [8]?
Answer: 23.8 µM

Question: And the TGI [8]?
Answer: 83.9 µM

Question: And the GI50 [9]?
Answer: 63.6 µM

Question: What about the TGI [9] of the same compound?
Answer: > 100 µM

Question: What about the GI50 [10] of the same compound?
Answer: 23.7 µM

Question: What about the TGI [10] of the same compound?
Answer: 44.1 µM

Question: What about the GI50 [11] of the same compound?
Answer: > 100 µM

Question: What about the TGI [11] of the same compound?
Answer: > 100 µM

Question: And the GI50 [12]?
Answer: 34.1 µM

Question: And the TGI [12]?
Answer: > 100 µM

Question: What about the GI50 [13] of the same compound?
Answer: 51.3 µM

Question: And the TGI [13]?
Answer: > 100 µM

Question: And the GI50 [14]?
Answer: 43.4 µM

Question: What about the TGI [14] of the same compound?
Answer: > 100 µM

Question: And the GI50 [15]?
Answer: 21.4 µM

Question: And the TGI [15]?
Answer: 51.2 µM

Question: And the GI50 [16]?
Answer: 78.8 µM

Question: What about the TGI [16] of the same compound?
Answer: > 100 µM

Question: What about the GI50 [17] of the same compound?
Answer: 25.4 µM

Question: And the TGI [17]?
Answer: 94 µM

Question: And the GI50 [18]?
Answer: 22.3 µM

Question: What about the TGI [18] of the same compound?
Answer: 44.8 µM

Question: And the GI50 [19]?
Answer: 13 µM

Question: And the TGI [19]?
Answer: 29.6 µM

Question: And the GI50 [20]?
Answer: 51.2 µM

Question: What about the TGI [20] of the same compound?
Answer: > 100 µM

Question: What about the GI50 [21] of the same compound?
Answer: 43 µM

Question: What about the TGI [21] of the same compound?
Answer: > 100 µM

Question: What about the GI50 [22] of the same compound?
Answer: 0.198 µM

Question: And the TGI [22]?
Answer: 29.2 µM

Question: And the GI50 [23]?
Answer: 53.5 µM

Question: What about the TGI [23] of the same compound?
Answer: > 100 µM

Question: What about the GI50 [24] of the same compound?
Answer: 23.2 µM

Question: And the TGI [24]?
Answer: 75.5 µM

Question: What about the GI50 [25] of the same compound?
Answer: 36.7 µM

Question: What about the TGI [25] of the same compound?
Answer: > 100 µM

Question: What about the GI50 [26] of the same compound?
Answer: 15.8 µM

Question: And the TGI [26]?
Answer: 31.6 µM

Question: What about the GI50 [27] of the same compound?
Answer: 24.2 µM

Question: What about the TGI [27] of the same compound?
Answer: 54.6 µM

Question: What about the GI50 [28] of the same compound?
Answer: > 100 µM

Question: And the TGI [28]?
Answer: > 100 µM

Question: What about the GI50 [29] of the same compound?
Answer: 78.1 µM

Question: And the TGI [29]?
Answer: > 100 µM

Question: What about the GI50 [30] of the same compound?
Answer: 57.7 µM

Question: And the TGI [30]?
Answer: > 100 µM

Question: And the GI50 [31]?
Answer: > 100 µM

Question: And the TGI [31]?
Answer: > 100 µM

Question: And the GI50 [32]?
Answer: 86.7 µM

Question: And the TGI [32]?
Answer: > 100 µM

Question: And the GI50 [33]?
Answer: 20.5 µM

Question: What about the TGI [33] of the same compound?
Answer: 49.9 µM

Question: What about the GI50 [34] of the same compound?
Answer: 65.1 µM

Question: And the TGI [34]?
Answer: > 100 µM

Question: What about the GI50 [35] of the same compound?
Answer: 33.8 µM

Question: What about the TGI [35] of the same compound?
Answer: > 100 µM

Question: And the GI50 [36]?
Answer: 16.3 µM

Question: And the TGI [36]?
Answer: 29.9 µM

Question: And the GI50 [37]?
Answer: 29 µM

Question: What about the TGI [37] of the same compound?
Answer: > 100 µM

Question: What about the GI50 [38] of the same compound?
Answer: 75.9 µM

Question: What about the TGI [38] of the same compound?
Answer: > 100 µM

Question: And the GI50 [39]?
Answer: > 100 µM

Question: What about the TGI [39] of the same compound?
Answer: > 100 µM

Question: What about the GI50 [40] of the same compound?
Answer: 19.9 µM

Question: What about the TGI [40] of the same compound?
Answer: 45.5 µM

Question: And the GI50 [41]?
Answer: > 100 µM

Question: What about the TGI [41] of the same compound?
Answer: > 100 µM

Question: And the GI50 [42]?
Answer: 19.9 µM

Question: What about the TGI [42] of the same compound?
Answer: 36.9 µM

Question: What about the GI50 [43] of the same compound?
Answer: 29.2 µM

Question: What about the TGI [43] of the same compound?
Answer: > 100 µM

Question: What about the GI50 [44] of the same compound?
Answer: 19.9 µM

Question: And the TGI [44]?
Answer: 41.8 µM

Question: What about the GI50 [45] of the same compound?
Answer: 66.2 µM

Question: And the TGI [45]?
Answer: > 100 µM

Question: What about the GI50 [46] of the same compound?
Answer: 62.7 µM

Question: What about the TGI [46] of the same compound?
Answer: > 100 µM

Question: And the GI50 [47]?
Answer: 27.1 µM

Question: And the TGI [47]?
Answer: 97.5 µM

Question: What about the GI50 [48] of the same compound?
Answer: 29.5 µM

Question: And the TGI [48]?
Answer: 70.3 µM

Question: And the GI50 [49]?
Answer: > 100 µM

Question: What about the TGI [49] of the same compound?
Answer: > 100 µM
